Measured values taken from article PMC10820097, “Benzofuran Derivatives from Cortex Mori Radicis and Their Cholinesterase-Inhibitory Activity” (Molecules, 2024).
Several values for one entry are separate records, joined by “and”; a condition that tells them apart may be missing. Equal entries are not always repeated. Where two headings read alike, the source gives them in different places.

Experiments:
[1] = molecular target: T1, BChE (EC 3.1.1.8) (Equus caballus, UniProt P81908); assay: Kinetic study of BChE inhibition (Lineweaver–Burk and secondary plots); assay type: biochemical; conditions: for BChE Inhibition Type: Lineweaver–Burk plots; for BChE αKi: from secondary plot of 1/Vmax vs [I], binding to ES complex; for BChE α (thermodynamic cooperativity factor): αKi/Ki
T1 construct: BChE (EC 3.1.1.8, from equine serum); purchased Aladdin Industrial Co., Ltd. (Shanghai, China); host or cells: equine serum (natural source)
T1 sequence (P81908 whole entry): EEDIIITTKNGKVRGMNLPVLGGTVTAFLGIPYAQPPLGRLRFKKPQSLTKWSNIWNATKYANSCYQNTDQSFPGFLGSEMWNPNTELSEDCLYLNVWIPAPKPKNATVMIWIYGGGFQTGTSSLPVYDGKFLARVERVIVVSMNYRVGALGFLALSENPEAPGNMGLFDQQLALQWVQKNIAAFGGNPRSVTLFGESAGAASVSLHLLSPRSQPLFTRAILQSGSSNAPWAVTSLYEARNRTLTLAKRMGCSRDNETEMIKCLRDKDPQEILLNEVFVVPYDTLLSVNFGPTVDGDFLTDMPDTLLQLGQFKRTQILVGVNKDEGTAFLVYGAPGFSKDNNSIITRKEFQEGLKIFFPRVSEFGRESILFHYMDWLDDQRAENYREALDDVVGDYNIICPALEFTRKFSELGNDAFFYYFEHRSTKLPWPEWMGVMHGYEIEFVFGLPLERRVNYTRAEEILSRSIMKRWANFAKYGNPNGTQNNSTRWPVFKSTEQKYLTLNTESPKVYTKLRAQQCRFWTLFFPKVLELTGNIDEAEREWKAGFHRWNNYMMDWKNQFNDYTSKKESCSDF
Protocol: To determine the inhibition modes of the compounds, enzyme kinetic studies were carried out for the structurally representative inhibitors, namely, compounds 1, 8, 9, 11, and 14. […] For this type of interaction, inhibitors can bind to the free enzyme (E) and the enzyme–substrate (ES) complex, forming EI and ESI complexes, respectively. The Ki and αKi values for the inhibitors were determined from the secondary plots of the slope (Km/Vm) and the vertical intercept (1/Vm) from the Lineweaver–Burk plot as functions of the inhibitor concentration, respectively (Figure S2 in Supplementary Materials), and the thermodynamic cooperativity factor α differed among the five structurally diverse inhibitors (Table 3).
(§1) AChE (EC 3.1.1.7, from electric eel), BChE (EC 3.1.1.8, from equine serum), acetylthiocholine iodide (ATCI), butyrylthiocholine iodide (BTCI), and 5,5′-dithiobis (2-nitrobenzoic acid) (DTNB) were purchased from Aladdin Industrial Co., Ltd. (Shanghai, China).
Using the same protocol as the inhibitory activity assay, kinetic studies of BChE inhibition were performed with a series of concentrations of substrate BTCI, namely, 0.1, 0.2, 0.3, 0.4, and 0.5 mM or 0.2, 0.4, 0.5, 0.6, and 0.7 mM. Three concentrations of each test compound were selected according to the IC50 value. The detection of absorbance was conducted during the enzymatic reaction at 10 min, 20 min, and 25 min. The change in absorbance per minute was referred to as the velocity of the enzyme-promoting reaction. The Lineweaver–Burk plots (double-reciprocal plots) were created by plotting the reciprocal of velocity (1/V) against the reciprocal of BTCI concentration (1/[BTCI]) for a compound at three concentrations, and the kinetic parameters, Michaelis constant (Km), and maximum velocity (Vmax) obtained therefrom were used to check the inhibition modes. The value of the inhibitor constant Ki was determined by referencing the secondary plot of the slope of the double-reciprocal lines (from the Lineweaver–Burk plot) as a function of [I], and the x intercept was equal to −Ki. Another secondary plot was fitted by 1/Vmax as a function of the inhibitor concentration [I], and the value of −αKi can be determined to be the x intercept therefrom.

[2] = molecular target: T2, AChE (EC 3.1.1.7) (Electrophorus electricus, UniProt O42275); assay: biochemical; assay type: biochemical; conditions: for IC50: sample concentration that led to 50% enzyme activity loss, mean ± SD, triplicate
T2 construct: AChE (EC 3.1.1.7, from electric eel); purchased Aladdin Industrial Co., Ltd. (Shanghai, China); host or cells: electric eel (natural source)
T2 sequence (O42275 24-633): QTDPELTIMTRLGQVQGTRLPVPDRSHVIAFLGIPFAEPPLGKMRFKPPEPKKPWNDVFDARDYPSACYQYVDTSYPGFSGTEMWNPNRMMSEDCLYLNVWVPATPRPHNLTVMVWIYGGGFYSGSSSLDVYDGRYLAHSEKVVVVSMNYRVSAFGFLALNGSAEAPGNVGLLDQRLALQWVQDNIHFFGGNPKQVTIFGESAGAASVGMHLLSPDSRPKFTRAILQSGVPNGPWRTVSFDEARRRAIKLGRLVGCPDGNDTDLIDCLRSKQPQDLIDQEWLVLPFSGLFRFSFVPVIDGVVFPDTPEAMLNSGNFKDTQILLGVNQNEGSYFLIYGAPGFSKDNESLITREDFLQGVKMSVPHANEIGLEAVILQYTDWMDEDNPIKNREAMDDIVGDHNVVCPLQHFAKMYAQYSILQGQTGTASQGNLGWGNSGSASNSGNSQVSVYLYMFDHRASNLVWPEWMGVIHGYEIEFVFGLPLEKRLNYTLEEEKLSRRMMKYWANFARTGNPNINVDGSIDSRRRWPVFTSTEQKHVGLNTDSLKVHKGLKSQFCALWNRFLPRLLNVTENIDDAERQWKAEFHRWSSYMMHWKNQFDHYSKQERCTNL
Protocol: as §1
(§2) Briefly, AChE and BChE solutions (0.2 units/mL) and ATCI, BTCI, and DTNB solutions (10 mM) were prepared in PBS solution (0.1 M, pH 8.0). The test compound stock solutions (10 mM) were made using methanol, and five different concentrations of each compound were prepared by doubling the dilution with methanol to determine the half-maximal inhibitory concentration (IC50). Firstly, 160 μL of PBS, 2 μL of the test samples, 20 μL of AChE or BChE, and 10 μL of DTNB were mixed and preincubated at 37 °C for 10 min. Thereafter, 10 μL of ATCI or BTCI was added to initiate the reaction, which was incubated at 37 °C for 25 min. The absorbance was measured at 412 nm during incubation. The inhibition rate was calculated using the following formula: IR% = [(Ac − As)]/(Ac − Ab] × 100%, where Ab denotes the absorbance of the blank control (20 μL of water replacing the enzyme solution), Ac represents the absorbance of the control (2 μL of methanol replacing the sample solutions), and As denotes the absorbance of the sample. All of the tests for each sample were performed in triplicate. The IC50 value of each compound was obtained by plotting the inhibition rate against the logarithm of its concentration, and the data were expressed as the mean ± SD.

[3] = molecular target: T1, BChE (EC 3.1.1.8); assay: BChE inhibitory activity assay (modified Ellman's method); assay type: biochemical; conditions: for IC50: sample concentration that led to 50% enzyme activity loss, mean ± SD, triplicate; for BChE inhibitory effect, in words: up to 100 μM where stated
Protocol: as §1, §2

[4] = cis-trans photoisomerization under UV exposure (HPLC detection); assay type: physicochemical; conditions: UV exposure at 254 and 365 nm
Text: The NMR data of 6 (Table 1 and Table 2) were identical to those of nigranol A previously isolated from Morus nigra Linn. The Δ7,8 double bond of nigranol A was formerly determined to be a Z-configuration according to the relatively large coupling constant (12.8 Hz) between H-8 and H-9, which is not applicable and convincing in view of the freely rotating single bond between C-8 and C-9. […] Fortunately, the crystals of compounds 1 and 6 were obtained, and single-crystal X-ray diffraction (XRD) analyses were conducted to determine the configuration of the Δ7,8 double bond. As a result, the isobutene moiety (C-9) and the carbonyl group (C-13), the larger substituent groups for C-8 and C-7, respectively, existed in cis- and trans-conformations in compounds 1 and 6, respectively (Figure 3). Therefore, compound 1 was determined to be (Z)-6-hydroxy-3-(3-methylbut-2-en-1-ylidene)benzofuran-2(3H)-one and named albaphenol A, while nigranol A (6) was revised as (E)-6-hydroxy-3-(3-methylbut-2-en-1-ylidene)benzofuran-2(3H)-one. […] Due to the cis–trans tautomerism also taking place slowly under natural light, the samples were stored in a 4 °C refrigerator under dark conditions, and the crystallizations of the two compounds were induced in nearly saturated methanol solution under the same conditions.

[5] = tested on: BChE; parameters: method as in PMID 29786669; conditions: read-out: BChE IC50 in previous research; cited from earlier work
[6] = tested on: BChE; parameters: method as in PMID 31459768; conditions: cited from earlier work
[7] = from secondary plot of slope of Lineweaver–Burk lines vs [I], binding to free enzyme, read-out: BChE Ki

## CC(C)=C/C=C1\C(=O)Oc2cc(O)ccc21 [Compound 1, (Z)-6-hydroxy-3-(3-methylbut-2-en-1-ylidene)benzofuran-2(3H)-one]
[1]
  BChE Inhibition Type: Mixed uncompetitive
  BChE αKi: 43.0 µM
  BChE α (thermodynamic cooperativity factor): 0.46
[1]; [7]
  Ki: 93.4 µM
[2]
  IC50: > 100 µM
[3]; read-out: IC50 BChE
  IC50: 45.5 ± 5.9 µM
[4]
  time to almost reach equilibrium of cis-trans photoisomerization (1 and 6, ratio approximately 1:1): ≤ 30 min

## COC(=O)/C(=C/C=C(C)C)c1ccc(O)cc1O [Compound 2, albaphenol B]
[2]
  IC50: > 100 µM
[3]; read-out: IC50 BChE
  IC50: > 100 µM

## COC(=O)C(CC=C(C)C)c1ccc(O)cc1O (centres unmarked) [Compound 3, methyl 2-(2,4-dihydroxyphenyl)-5-methylhex-4-enoate]
[2]
  IC50: > 100 µM
[3]; read-out: IC50 BChE
  IC50: > 100 µM

## CCOC(=O)C(CC=C(C)C)c1ccc(O)cc1O (centres unmarked) [Compound 4, ethyl 2-(2,4-dihydroxyphenyl)-5-methylhex-4-enoate]
[2]
  IC50: > 100 µM
[3]; read-out: IC50 BChE
  IC50: 61 ± 3.4 µM

## CC(C)(O)CCC(=O)c1ccc(O)cc1O [Compound 5, 1-(2,4-dihydroxyphenyl)-4-hydroxy-4-methylpentan-1-one]
[2]
  IC50: > 100 µM
[3]; read-out: IC50 BChE
  IC50: > 100 µM

## CC(C)=C/C=C1/C(=O)Oc2cc(O)ccc21 [Compound 6, (E)-6-hydroxy-3-(3-methylbut-2-en-1-ylidene)benzofuran-2(3H)-one]
[2]
  IC50: > 100 µM
[2]; up to 100 μM where stated
  AChE inhibitory effect, in words: no obvious inhibition
[3]; read-out: IC50 BChE
  IC50: 94.8 µM and > 100 µM
[3]
  BChE inhibitory effect, in words: no obvious inhibition
[4]
  time to almost reach equilibrium of cis-trans photoisomerization (1 and 6, ratio approximately 1:1): ≤ 30 min

## COc1cc(O)cc(-c2cc3cc(O)c(OC)cc3o2)c1 [Compound 7, moracin B]
[2]
  IC50: > 100 µM
[3]; read-out: IC50 BChE
  IC50: > 100 µM
[3]
  BChE inhibitory effect, in words: did not inhibit

## CC(C)=CCc1c(O)cc(-c2cc3ccc(O)cc3o2)cc1O [Compound 8, moracin C]
[1]
  BChE Inhibition Type: Mixed competitive
  BChE αKi: 71.1 µM
  BChE α (thermodynamic cooperativity factor): 5.55
[1]; [7]
  Ki: 12.8 µM
[2]
  IC50: > 100 µM
[3]; read-out: IC50 BChE
  IC50: 27.9 ± 3.5 µM

## CC1(C)C=Cc2c(O)cc(-c3cc4ccc(O)cc4o3)cc2O1 [Compound 9, moracin D]
[1]
  Ki: 5.7 µM
  BChE Inhibition Type: Mixed competitive
  BChE αKi: 25.2 µM
  BChE α (thermodynamic cooperativity factor): 4.42
[2]
  IC50: 81.2 ± 3.9 µM
[3]; IC50 BChE
  IC50: 9.5 ± 3.2 µM

## Oc1cc(O)cc(-c2cc3ccc(O)cc3o2)c1 [Compound 10, moracin M]
[5]
  IC50: 38.1 µM
[2]
  IC50: > 100 µM
[3]; read-out: IC50 BChE
  IC50: > 100 µM
[3]
  BChE inhibitory effect, in words: did not inhibit

## CC(C)=CCc1cc2cc(-c3cc(O)cc(O)c3)oc2cc1O [Compound 11, moracin N]
[1]
  BChE Inhibition Type: Noncompetitive
  BChE αKi: 13.3 µM
  BChE α (thermodynamic cooperativity factor): 1.05
[1]; [7]
  Ki: 12.7 µM
[2]
  IC50: 40.5 ± 4.7 µM
[3]; read-out: IC50 BChE
  IC50: 13.5 ± 1.6 µM

## CC(C)(O)C1Cc2cc3cc(-c4cc(O)cc(O)c4)oc3cc2O1 (centres unmarked) [Compound 12, moracin O]
[5]
  IC50: 28.2 µM
[3]
  BChE inhibitory effect, in words: neither moracin O (12) nor P (13) exhibited a significant inhibitory effect

## CC1(C)Oc2cc3oc(-c4cc(O)cc(O)c4)cc3cc2C[C@H]1O [Compound 13, moracin P]
[5]
  IC50: 38 µM
[3]
  BChE inhibitory effect, in words: neither moracin O (12) nor P (13) exhibited a significant inhibitory effect

## CC(C)=CCc1c(O)cc2c(c1-c1cc3ccc(O)cc3o1)C=CC(C)(C)O2 [Compound 14, cathafuran C]
[1]
  BChE Inhibition Type: Competitive
  BChE αKi: 22.7 µM
  BChE α (thermodynamic cooperativity factor): 13.35
[1]; [7]
  Ki: 1.7 µM
[2]
  IC50: > 100 µM
[3]
  selective index (AChE IC50/BChE IC50 ratio): over 38
[3]; read-out: IC50 BChE
  IC50: 2.6 ± 0.2 µM

## CC(C)=CCc1c(O)cc(O)c(CC=C(C)C)c1-c1cc2ccc(O)cc2o1 [Compound 15, mulberrofuran V]
[2]
  IC50: > 100 µM
[3]; read-out: IC50 BChE
  IC50: 27.1 ± 6.8 µM

## COc1cc(O)c(CC=C(C)C)c(-c2cc3ccc(O)cc3o2)c1CC=C(C)C [Compound 16, mulberrofuran N]
[2]
  IC50: > 100 µM
[3]; read-out: IC50 BChE
  IC50: 32.8 ± 4.2 µM

## CC(C)=CCCC1(C)C=Cc2c(ccc3cc(-c4cc(O)cc(O)c4CC=C(C)C)oc23)O1 (centres unmarked) [mulberrofuran D2]
[6]
  IC50: 1.51 µM

## CC(C)=CCC/C(C)=C/Cc1c(O)ccc2cc(-c3cc(O)cc(O)c3CC=C(C)C)oc12 [mulberrofuran D]
[6]
  IC50: 6.12 µM
